Source: ChEMBL document CHEMBL1201862, “PubChem BioAssay data set” (2004)
Calls of active or inactive are those of the source.

Key:
[1] = luciferase reporter signal suppression in cells – H4 neuroglioma cells, luminescence, dose response (AID 1990); assay type: functional, cell-based
[2] = Luminescence Cell-Based Dose Response HTS to Identify Inhibitors of 5'UTR Stem-Loop Driven Prion Protein mRNA Translation in H4 Neuroglioblastoma Cells. [Related pubchem assays: 1827 (Project Summary), 1813 (Primary HTS)]; assay type: functional
[3] = alpha-synuclein stem-loop luciferase translation blockers – H4 neuroglioma cells, luminescence, confirmation (AID 1988); assay type: functional, cell-based
Large T antigen = Large T antigen (Simian virus 40, UniProt P03070); assay type: functional, Betapolyomavirus macacae;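 further: Confirmatory-stage PubChem screen for compounds that inhibit SV40 T antigen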
[4] = target: T1, Rac GTPase-activating protein 1 (Homo sapiens, UniProt Q9H0H5); assay: blockers of MgcRacGAP-driven Rac1 GTP hydrolysis – biochemical, ADP Hunter fluorescence, primary and confirmatory, confirmation (AID 624330); assay type: functional
T1 sequence (Q9H0H5 whole entry): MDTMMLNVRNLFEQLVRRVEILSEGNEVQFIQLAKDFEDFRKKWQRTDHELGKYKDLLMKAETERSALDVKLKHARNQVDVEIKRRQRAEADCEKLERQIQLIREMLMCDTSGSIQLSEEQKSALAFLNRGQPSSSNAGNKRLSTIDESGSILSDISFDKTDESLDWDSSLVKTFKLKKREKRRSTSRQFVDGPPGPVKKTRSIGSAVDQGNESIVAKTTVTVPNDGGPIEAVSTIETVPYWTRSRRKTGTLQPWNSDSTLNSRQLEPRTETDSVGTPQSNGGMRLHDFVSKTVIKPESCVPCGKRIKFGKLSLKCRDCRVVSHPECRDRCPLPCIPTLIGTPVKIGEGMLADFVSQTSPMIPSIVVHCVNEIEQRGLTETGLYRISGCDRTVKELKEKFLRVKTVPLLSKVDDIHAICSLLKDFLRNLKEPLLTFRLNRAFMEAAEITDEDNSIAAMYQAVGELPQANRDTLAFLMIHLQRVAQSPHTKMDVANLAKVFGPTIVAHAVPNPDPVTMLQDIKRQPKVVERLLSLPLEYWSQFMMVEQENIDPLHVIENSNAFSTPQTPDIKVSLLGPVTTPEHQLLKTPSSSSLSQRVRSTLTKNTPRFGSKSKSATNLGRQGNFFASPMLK

Cytochrome P450 2D6 = Cytochrome P450 2D6 (Homo sapiens, UniProt P10635);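 further: CYP2D6 member of a cytochrome P450 panel assay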
Cytochrome P450 1A2 = target: T2, Cytochrome P450 1A2 (Homo sapiens, UniProt P05177);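 further: PubChem cytochrome P450 panel assay, CYP1A2 panel member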
T2 sequence (P05177 whole entry): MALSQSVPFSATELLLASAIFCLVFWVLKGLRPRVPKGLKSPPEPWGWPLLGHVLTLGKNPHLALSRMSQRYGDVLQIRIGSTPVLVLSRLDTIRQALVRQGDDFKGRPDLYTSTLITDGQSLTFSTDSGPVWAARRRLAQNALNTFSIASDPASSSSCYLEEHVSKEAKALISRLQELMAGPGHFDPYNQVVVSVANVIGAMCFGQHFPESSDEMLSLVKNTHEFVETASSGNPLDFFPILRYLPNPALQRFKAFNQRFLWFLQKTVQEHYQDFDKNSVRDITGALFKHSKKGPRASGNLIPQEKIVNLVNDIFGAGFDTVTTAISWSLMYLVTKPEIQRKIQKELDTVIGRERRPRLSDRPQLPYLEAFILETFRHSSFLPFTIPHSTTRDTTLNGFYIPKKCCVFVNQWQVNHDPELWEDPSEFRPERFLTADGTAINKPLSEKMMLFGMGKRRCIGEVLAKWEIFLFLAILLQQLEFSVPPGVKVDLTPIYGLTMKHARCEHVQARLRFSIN

[5] = target: T3, Corticotropin-releasing factor receptor 2/Corticotropin-releasing factor-binding protein (Homo sapiens, UniProt P24387+Q13324); assay: Dose Response confirmation of uHTS hits for small molecule antagonists of the CRF-binding protein and CRF-R2 receptor complex.; assay type: functional; conditions: read-out: IC50_Mean
T3 sequence (Q13324 whole entry): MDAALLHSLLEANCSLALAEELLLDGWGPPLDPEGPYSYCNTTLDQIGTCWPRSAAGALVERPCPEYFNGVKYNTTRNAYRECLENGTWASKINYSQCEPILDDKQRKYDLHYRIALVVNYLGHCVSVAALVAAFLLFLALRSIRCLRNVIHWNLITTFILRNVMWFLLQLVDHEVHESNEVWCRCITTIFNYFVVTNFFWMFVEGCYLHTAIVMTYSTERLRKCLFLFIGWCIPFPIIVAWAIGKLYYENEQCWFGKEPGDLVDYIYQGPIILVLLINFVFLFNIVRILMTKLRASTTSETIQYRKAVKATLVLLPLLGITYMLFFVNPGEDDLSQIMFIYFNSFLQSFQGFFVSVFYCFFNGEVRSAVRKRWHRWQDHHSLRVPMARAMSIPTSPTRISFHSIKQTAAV
T3 sequence (P24387 whole entry): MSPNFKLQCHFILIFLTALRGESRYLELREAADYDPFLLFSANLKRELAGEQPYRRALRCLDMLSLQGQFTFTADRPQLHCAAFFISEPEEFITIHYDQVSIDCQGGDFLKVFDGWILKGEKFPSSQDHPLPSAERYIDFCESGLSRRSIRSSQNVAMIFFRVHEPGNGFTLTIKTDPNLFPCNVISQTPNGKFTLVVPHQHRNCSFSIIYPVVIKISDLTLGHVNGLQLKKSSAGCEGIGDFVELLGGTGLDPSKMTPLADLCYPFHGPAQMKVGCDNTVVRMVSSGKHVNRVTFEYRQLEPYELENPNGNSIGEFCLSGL

[6] = target: T3, Corticotropin-releasing factor receptor 2/Corticotropin-releasing factor-binding protein; assay: activators of CRF receptor 2 with binding protein – uHTS hits, confirmation (AID 602473); assay type: functional; conditions: read-out: EC50_Mean
[7] = Trypanosoma cruzi growth suppression in host cells – NIH3T3 host cells, beta-gal luminescence, confirmation (AID 2044); assay type: functional, cell-based;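 further: intracellular parasites grown in NIH/3T3 mouse fibroblasts as host cells; luminescent beta-galactosidase reporter signal from transgenic T. cruzi replicating inside host cells; inhibitors lower the luminescence signal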
[8] = NIH3T3 cell viability loss – ATP luminescence, mouse fibroblasts, counter-screen, dose response (AID 2010); assay type: functional, cell-based;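 further: cells exposed to compound for about 90 hours before reading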
[9] = reduction of Shn3 3'UTR-driven luciferase in osteoblasts – cell-based, Clone20 osteoblasts, firefly luciferase, cherry-picked, dose response (AID 624132); assay type: functional;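 further: firefly luciferase luminescence from reporter carrying the Shn3 3'UTR in osteoblasts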
[10] = non-specific 3'UTR reporter inhibition in Clone20-Shn3RL – cell-based, Renilla luciferase, cherry-picked, counter-screen for Shn3 inhibitor project, dose response (AID 624133); assay type: functional
[11] = Luminescence Cell-Based Dose Retest to Confirm Inhibitors of Cancer Stem Cells. [Related pubchem assays (depositor defined):AID2717, AID2721]; assay type: functional; conditions: Homo sapiens
[12] = target: FAD-linked sulfhydryl oxidase ALR (Homo sapiens, UniProt P55789); assay: ALR-catalysed DTT oxidation blockers – biochemical, H2O2 detection, luminescence, cherry-pick, dose response (AID 493248)
Cytochrome P450 2C19 = Cytochrome P450 2C19 (Homo sapiens, UniProt P33261); assay: Cytochrome panel assay with activity outcomes. Panel member name: p450-cyp2c19 Compounds with AC50 equal or less than 10 uM are considered active; assay type: functional; conditions: read-out: AC50
Cytochrome P450 3A4 = Cytochrome P450 3A4 (Homo sapiens, UniProt P08684);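 further: CYP3A4 tested as one member of a cytochrome P450 panel screen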
Cytochrome P450 3A4, sequence (P08684 whole entry): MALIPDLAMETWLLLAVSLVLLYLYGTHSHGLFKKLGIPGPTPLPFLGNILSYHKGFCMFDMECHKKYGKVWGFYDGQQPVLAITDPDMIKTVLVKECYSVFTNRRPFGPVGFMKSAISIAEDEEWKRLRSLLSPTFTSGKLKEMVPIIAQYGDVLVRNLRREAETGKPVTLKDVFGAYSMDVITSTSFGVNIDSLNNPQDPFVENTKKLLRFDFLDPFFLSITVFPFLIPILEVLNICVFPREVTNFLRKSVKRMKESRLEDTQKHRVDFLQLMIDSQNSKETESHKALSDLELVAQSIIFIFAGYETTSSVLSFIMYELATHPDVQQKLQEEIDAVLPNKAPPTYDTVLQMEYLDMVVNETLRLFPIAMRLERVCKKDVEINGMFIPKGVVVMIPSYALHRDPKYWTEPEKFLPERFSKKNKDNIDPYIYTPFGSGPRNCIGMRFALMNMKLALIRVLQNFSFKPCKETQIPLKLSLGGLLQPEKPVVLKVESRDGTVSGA

Cytochrome P450 2D6, sequence (P10635 whole entry): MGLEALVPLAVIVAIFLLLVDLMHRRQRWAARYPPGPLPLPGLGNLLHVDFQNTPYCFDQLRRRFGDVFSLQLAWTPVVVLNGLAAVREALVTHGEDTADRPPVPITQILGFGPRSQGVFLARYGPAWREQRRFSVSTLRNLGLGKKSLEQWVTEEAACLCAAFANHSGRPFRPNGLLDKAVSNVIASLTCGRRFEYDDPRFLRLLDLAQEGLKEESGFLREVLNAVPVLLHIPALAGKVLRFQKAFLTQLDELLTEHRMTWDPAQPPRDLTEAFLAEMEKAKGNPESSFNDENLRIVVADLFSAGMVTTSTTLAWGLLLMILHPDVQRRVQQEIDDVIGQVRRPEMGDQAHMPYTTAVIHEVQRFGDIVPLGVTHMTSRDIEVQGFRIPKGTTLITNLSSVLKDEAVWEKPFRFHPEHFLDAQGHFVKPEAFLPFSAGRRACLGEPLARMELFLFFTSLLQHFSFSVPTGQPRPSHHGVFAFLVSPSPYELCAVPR
FAD-linked sulfhydryl oxidase ALR, sequence (P55789 whole entry): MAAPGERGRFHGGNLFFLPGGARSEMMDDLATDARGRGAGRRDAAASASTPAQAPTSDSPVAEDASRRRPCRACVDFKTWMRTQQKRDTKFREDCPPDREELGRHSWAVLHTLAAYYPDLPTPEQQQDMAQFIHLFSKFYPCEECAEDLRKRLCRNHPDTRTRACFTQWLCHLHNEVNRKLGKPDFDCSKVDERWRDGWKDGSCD
Cytochrome P450 2C19, sequence (P33261 whole entry): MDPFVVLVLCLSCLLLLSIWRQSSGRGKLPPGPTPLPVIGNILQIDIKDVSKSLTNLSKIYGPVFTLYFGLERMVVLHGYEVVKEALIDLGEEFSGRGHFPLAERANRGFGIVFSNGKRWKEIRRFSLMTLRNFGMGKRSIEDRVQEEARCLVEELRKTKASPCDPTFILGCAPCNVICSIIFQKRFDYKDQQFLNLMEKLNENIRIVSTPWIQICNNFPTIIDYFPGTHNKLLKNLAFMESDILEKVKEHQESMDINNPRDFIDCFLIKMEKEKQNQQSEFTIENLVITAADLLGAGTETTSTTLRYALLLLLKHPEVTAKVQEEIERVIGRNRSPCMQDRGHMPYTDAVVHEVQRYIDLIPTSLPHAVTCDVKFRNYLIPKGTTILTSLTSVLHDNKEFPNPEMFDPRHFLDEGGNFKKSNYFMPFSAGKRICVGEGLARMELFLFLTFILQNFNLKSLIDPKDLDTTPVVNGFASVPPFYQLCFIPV
Large T antigen, sequence (P03070 whole entry): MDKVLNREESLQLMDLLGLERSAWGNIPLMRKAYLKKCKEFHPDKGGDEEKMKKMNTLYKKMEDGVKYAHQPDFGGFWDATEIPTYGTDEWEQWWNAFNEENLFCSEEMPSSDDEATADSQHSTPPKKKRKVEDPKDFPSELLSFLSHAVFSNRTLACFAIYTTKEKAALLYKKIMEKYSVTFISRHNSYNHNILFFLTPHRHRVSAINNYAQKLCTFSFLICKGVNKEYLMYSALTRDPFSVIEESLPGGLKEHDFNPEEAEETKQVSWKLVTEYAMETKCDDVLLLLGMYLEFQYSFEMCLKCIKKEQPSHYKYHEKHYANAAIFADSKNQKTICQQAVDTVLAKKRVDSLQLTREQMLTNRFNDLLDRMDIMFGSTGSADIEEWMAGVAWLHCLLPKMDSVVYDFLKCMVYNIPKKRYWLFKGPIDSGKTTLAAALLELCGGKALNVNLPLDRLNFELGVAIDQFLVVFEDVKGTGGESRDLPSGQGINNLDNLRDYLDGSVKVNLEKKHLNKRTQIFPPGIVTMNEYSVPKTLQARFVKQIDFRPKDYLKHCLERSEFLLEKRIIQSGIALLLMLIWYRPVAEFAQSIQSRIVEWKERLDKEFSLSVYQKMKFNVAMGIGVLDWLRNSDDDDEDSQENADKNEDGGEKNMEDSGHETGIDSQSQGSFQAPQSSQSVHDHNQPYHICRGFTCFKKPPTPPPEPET

## COc1ccc(NC(=O)CNC(=O)Cn2c(C)cc3ccccc3c2=O)c(OC)c1
[1]
  EC50: > 120 µM (not active)
[2]
  EC50: > 120 µM (not active)
[3]
  EC50: > 120 µM (not active)

## CN1C=CC=C/C1=C(\C#N)c1nc2ccccc2[nH]1
Large T antigen
  IC50: 7.7 µM (active)
[4]
  IC50: 46.4 µM (active)

## O=C(NCCN1CCOCC1)c1csc2c1CCCCC2
Cytochrome P450 2D6
  AC50: 17.8 µM (inconclusive)
Cytochrome P450 1A2
  AC50: 20 µM (inconclusive)

## COc1ccc(NC(=O)Nc2nnc(C(C)(C)C)s2)cc1
[5]
  IC50: > 47.1 µM (inactive)
[6]
  EC50: > 53 µM (inactive)

## COC(=O)c1cccc(NC(=O)NC(=O)c2ccccc2Cl)c1
[1]
  EC50: 2 µM (active)
[2]
  EC50: 2.84 µM (active)
[3]
  EC50: 7.75 µM (active)

## COc1ccc2c(c1)c(CC(=O)Nc1cc(C)ccc1C)c(C)n2C(=O)c1ccc(Cl)cc1
[7]
  EC50: 0.938 µM (active)
[8]
  EC50: > 60 µM (not active)
[9]
  AC50: 5.69 µM (active)
[6]
  EC50: > 53 µM (inactive)
[10]
  AC50: 13.1 µM (active)

## COC(=O)c1c(NC(=O)COc2ccc(Cl)cc2Cl)sc2c1CC(C)(C)NC2(C)C
[1]
  EC50: 8.93 µM (active)
[2]
  EC50: > 120 µM (not active)
[3]
  EC50: 9.53 µM (active)
[11]
  AC50: 5.58 µM (active)

## Nc1ccc2nc(NC(=O)C3CCCCC3)sc2c1
[12]
  AC50: 0.957 µM (active)

## COc1ccc(OC)c(C(=O)N2CCC(n3nccc3NC(=O)CC(C)C)CC2)c1
[1]
  EC50: > 120 µM (not active)
[2]
  EC50: > 120 µM (not active)
[3]
  EC50: > 120 µM (not active)

## CC(NC(=O)C(=O)N1CCCCC1)C(c1cccs1)N1CCN(c2ccc(F)cc2)CC1 (stereo not drawn)
[12]
  AC50: 1.44 µM (active)

## Cc1ccccc1NS(=O)(=O)c1ccc2ncc(C(=O)NCCCN3CCOCC3)c(O)c2c1
Cytochrome P450 2C19
  AC50: 25.1 µM (inconclusive)
Cytochrome P450 2D6
  AC50: 20 µM (inconclusive)
Cytochrome P450 1A2
  AC50: 39.8 µM (inconclusive)

## c1cc(CN2CCCC3(CCNCC3)C2)ccn1
Cytochrome P450 2C19
  AC50: 25.1 µM (inconclusive)
Cytochrome P450 2D6
  AC50: 25.1 µM (inconclusive)

## CC(=O)Nc1ccc(S(=O)(=O)N(Cc2cc3ccc(C)cc3nc2O)CC2CCCO2)cc1 (stereo not drawn)
[1]
  EC50: 16.8 µM (active)
[2]
  EC50: 60.6 µM (active)
[3]
  EC50: 11.8 µM (active)

## Cc1[nH]c2ccc(C(=O)N3CCCCC3)cc2c1C
[12]
  AC50: 2.77 µM (active)

## CC(=O)N1CCC(=NNC(=O)c2cccs2)CC1
[12]
  AC50: 13.5 µM (active)

## CCN(Cc1ccncc1)C(=O)c1cc(Br)cc(Br)c1O
[12]
  AC50: 1.25 µM (active)

## COc1ccc2nc(S)[nH]c2c1
[12]
  AC50: 0.581 µM (active)

## COc1ccc(Oc2nccc(-c3ccc(F)cc3)c2C#N)cc1
Cytochrome P450 2D6
  AC50: 0.00562 µM (inconclusive)
Cytochrome P450 1A2
  AC50: 5.01 µM (inconclusive)
Cytochrome P450 3A4
  AC50: 12.6 µM (inconclusive)

## Cc1cccc(C(=O)Nc2nnc(S(=O)(=O)N(C)Cc3ccco3)s2)c1
[12]
  AC50: 9.45 µM (active)

## CN1Cc2cc(C(=O)c3ccccc3O)cnc2NC1=O
[12]
  AC50: 6.59 µM (active)
